In patent US20200172473A1, “DUAL MODULATORS OF FARNESOID X RECEPTOR AND SOLUBLE EPOXIDE HYDROLASE” (JOHANN WOLFGANG GOETHE-UNIVERSITÄT FRANKFURT AM MAIN, priority 2017, published 2020):
In brackets after ≈: the same amount, converted by molar mass.

Legend:
aqueous solubility = format: physicochemical; details: LLOQ 0.1 μg/mL
FXR-LBD = target: T1, FXR-LBD (Homo sapiens, UniProt Q96RI1); experiment: isothermal titration calorimetry (ITC); format: binding
T1 sequence (Q96RI1 262-486 limits assumed): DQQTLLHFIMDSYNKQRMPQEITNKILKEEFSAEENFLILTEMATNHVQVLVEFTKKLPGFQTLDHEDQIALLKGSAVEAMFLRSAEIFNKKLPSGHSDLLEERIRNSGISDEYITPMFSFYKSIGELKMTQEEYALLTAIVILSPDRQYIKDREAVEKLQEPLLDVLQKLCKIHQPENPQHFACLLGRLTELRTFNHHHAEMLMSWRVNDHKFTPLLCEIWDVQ

LXRα = target: T2, LXRα (Homo sapiens, UniProt Q13133); experiment: Gal4-hybrid reporter gene assay LXRα in HEK293T cells; format: cell-based; details: 10 μM; printed as both LXR subtypes
T2 construct: pFA-CMV-hLXRα-LBD; expressed in transfected cells; host or cells: HEK293T
T2 sequence (Q13133 209-447 limits assumed): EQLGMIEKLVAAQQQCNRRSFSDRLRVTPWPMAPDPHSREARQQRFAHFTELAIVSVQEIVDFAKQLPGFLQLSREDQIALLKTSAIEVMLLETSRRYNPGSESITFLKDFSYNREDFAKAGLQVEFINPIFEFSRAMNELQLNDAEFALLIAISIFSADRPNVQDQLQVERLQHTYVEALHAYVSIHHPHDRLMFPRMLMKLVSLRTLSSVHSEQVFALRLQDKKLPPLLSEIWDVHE
Excerpt: (§1) Hybrid reporter gene assays for PPARα/γ/δ, LXRα/β, RXRα/β/γ, RARα/β/γ, VDR and PXR Plasmids: The Gal4-fusion receptor plasmids pFA-CMV-hPPARα-LBD^52, pFA-CMV-hPPARγ-LBD^52, pFA-CMV-hPPARδ-LBD^52, pFA-CMV-hLXRα-LBD^32 and pFA-CMV-hLXRβ-LBD^32 have been reported previously. […] Frame and sequence of all fusion receptors were verified by sequencing. pFR-Luc (Stratagene) was used as reporter plasmid and pRL-SV40 (Promega) for normalization of transfection efficiency and cell growth.
(§2) Assay procedure: HEK293T cells were grown in DMEM high glucose, supplemented with 10% FCS, sodium pyruvate (1 mM), penicillin (100 U/mL) and streptomycin (100 μg/mL) at 37° C. and 5% CO2. The day before transfection, HEK293T cells were seeded in 96-well plates (2.5·10^4 cells/well). Before transfection, medium was changed to Opti-MEM without supplements. Transient transfection was carried out using Lipofectamine LTX reagent (Invitrogen) according to the manufacturer's protocol with pFR-Luc (Stratagene), pRL-SV40 (Promega) and pFA-CMV-hRXRα-LBD. 5 h after transfection, medium was changed to Opti-MEM supplemented with penicillin (100 U/mL), streptomycin (100 μg/mL), now additionally containing 0.1% DMSO and the respective test compound or 0.1% DMSO alone as untreated control. […] Luminescence was measured with an Infinite M200 luminometer (Tecan Deutschland GmbH). […]

LXRβ = target: T3, LXRβ (Homo sapiens, UniProt P55055); experiment: Gal4-hybrid reporter gene assay LXRβ in HEK293T cells; format: cell-based; details: 10 μM; printed as both LXR subtypes
T3 construct: pFA-CMV-hLXRβ-LBD; expressed in transfected cells; host or cells: HEK293T
T3 sequence (P55055 222-460 limits assumed): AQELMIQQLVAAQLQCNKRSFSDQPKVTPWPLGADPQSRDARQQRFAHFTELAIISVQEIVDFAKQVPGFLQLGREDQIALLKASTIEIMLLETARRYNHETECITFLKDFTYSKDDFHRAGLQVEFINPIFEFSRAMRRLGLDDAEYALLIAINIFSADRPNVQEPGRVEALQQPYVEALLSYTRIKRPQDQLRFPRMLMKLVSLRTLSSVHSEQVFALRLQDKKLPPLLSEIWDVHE
Excerpt: as §1, §2

RXRα = target: T4, RXRα (Homo sapiens, UniProt P19793); experiment: Gal4-hybrid reporter gene assay RXRα in HEK293T cells; format: cell-based; details: 10 μM
T4 construct: hRXRα-P19793, residues 225-462; expressed in transfected cells; host or cells: HEK293T
T4 sequence (P19793 225-462): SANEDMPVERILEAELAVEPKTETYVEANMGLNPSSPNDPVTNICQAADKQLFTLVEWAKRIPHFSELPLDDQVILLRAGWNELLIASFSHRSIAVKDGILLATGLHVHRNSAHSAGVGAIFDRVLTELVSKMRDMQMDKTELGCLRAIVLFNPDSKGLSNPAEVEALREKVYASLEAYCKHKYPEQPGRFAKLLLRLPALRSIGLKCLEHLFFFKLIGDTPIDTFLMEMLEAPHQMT
Excerpt: as §1, §2

[1] = test system: related nuclear receptors (PPARs, LXRs, RXRs, RARs, PXR and VDR); experiment: selectivity profile in Gal4-hybrid reporter gene assays (panel statement); format: cell-based, human; details: except PPARγ
Excerpt: as §1, §2

Question: With `CC(C)(C)c1ccc(C(=O)NCc2ccc(NS(C)(=O)=O)cc2Cl)cc1` [compound 57, 4-(tert-Butyl)-N-(2-chloro-4-(methylsulfonamido)benzyl)benzamide] as the compound, how does the aqueous solubility (aqueous solubility) read?
Answer: 1.5 µg/mL (≈ 3.8 µM)

Question: What about the Kd (FXR-LBD) of the same compound?
Answer: 130 nM

Question: And the “ΔH (ITC)” value (FXR-LBD)?
Answer: -19.5 kcal/mol

Question: What about the “ΔS (ITC)” value (FXR-LBD) of the same compound?
Answer: −34.0 cal/mol·K

Question: And the “activity on LXRα” value (LXRα)?
Answer: inactive

Question: What about the “activity on LXRβ” value (LXRβ) of the same compound?
Answer: inactive

Question: And the “activity on RXRα” value (RXRα)?
Answer: inactive

Question: What about the “activity on related nuclear receptors” value [1] of the same compound?
Answer: inactive
